Experiments:
[1] = biological target: T1, (−)-pluviatolide O-methyltransferase (OMT3) (Sinopodophyllum hexandrum, UniProt A0A0N9HMN6); assay: In vitro characterization of recombinant OMT3 (steady state kinetics, substrate specificity); format: biochemical, P. hexandrum; details: for acceptance as substrate by OMT3: (+)-pinoresinol 400 μM, (−)-matairesinol 40 μM, (−)-arctigenin 40 μM, quenched after 2 h
T1 construct: 6xHis (N); made in house; host or cells: E. coli BL21 (DE3), pET28a
T1 sequence (A0A0N9HMN6 1-372): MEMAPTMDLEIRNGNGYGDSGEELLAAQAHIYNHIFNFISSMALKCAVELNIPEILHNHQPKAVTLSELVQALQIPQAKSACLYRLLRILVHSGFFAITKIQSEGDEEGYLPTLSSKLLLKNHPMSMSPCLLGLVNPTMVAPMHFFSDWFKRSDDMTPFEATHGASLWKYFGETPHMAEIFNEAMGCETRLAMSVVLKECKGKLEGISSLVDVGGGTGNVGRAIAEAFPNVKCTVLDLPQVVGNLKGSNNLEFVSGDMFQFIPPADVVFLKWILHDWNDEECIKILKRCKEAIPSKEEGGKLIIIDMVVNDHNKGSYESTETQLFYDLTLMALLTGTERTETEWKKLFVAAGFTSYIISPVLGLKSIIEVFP

[2] = biological target: T2, 2-ODD (Sinopodophyllum hexandrum, UniProt A0A0N9HQ36); assay: 2-ODD enzyme assays; format: biochemical, P. hexandrum; details: 5 μg/mL 2-ODD, 2-oxoglutarate, FeSO4, 30 μM substrate, 30° C., 2 h
T2 construct: 6xHis (C); made in house; host or cells: E. coli BL21 (DE3), pET24b
T2 sequence (A0A0N9HQ36 whole entry): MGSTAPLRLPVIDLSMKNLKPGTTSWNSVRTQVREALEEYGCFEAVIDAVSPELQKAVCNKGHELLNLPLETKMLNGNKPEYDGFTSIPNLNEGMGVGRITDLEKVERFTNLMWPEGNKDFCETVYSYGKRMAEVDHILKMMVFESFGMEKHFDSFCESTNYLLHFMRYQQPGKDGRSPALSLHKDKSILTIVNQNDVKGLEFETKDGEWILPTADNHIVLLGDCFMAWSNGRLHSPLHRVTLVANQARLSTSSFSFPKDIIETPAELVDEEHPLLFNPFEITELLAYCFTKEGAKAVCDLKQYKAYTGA
Experimental: The above protocol was also followed for the expression and purification of 2-ODD from BL21 (DE3) E. coli harboring pET24b:2-ODD except for the following changes: the 2 L culture at OD600=0.6 was cooled to 16° C. and induced with 100 μM IPTG. The culture was further incubated at 16° C. for 24 h and cooled in ice water before proceeding with purification.
Assays lacking enzyme or 2-oxoglutarate served as negative controls.
(§1) Total reaction volumes were 50 μL.

[3] = biological target: T3, CYP71BE54 (Sinopodophyllum hexandrum, UniProt A0A0N9HT29); assay: CYP71BE54-microsome assays; details: 4 mg/mL microsomes, 1 mM NADPH, 50 μM substrate, 30° C., 2 h
T3 sequence (A0A0N9HT29 1-507): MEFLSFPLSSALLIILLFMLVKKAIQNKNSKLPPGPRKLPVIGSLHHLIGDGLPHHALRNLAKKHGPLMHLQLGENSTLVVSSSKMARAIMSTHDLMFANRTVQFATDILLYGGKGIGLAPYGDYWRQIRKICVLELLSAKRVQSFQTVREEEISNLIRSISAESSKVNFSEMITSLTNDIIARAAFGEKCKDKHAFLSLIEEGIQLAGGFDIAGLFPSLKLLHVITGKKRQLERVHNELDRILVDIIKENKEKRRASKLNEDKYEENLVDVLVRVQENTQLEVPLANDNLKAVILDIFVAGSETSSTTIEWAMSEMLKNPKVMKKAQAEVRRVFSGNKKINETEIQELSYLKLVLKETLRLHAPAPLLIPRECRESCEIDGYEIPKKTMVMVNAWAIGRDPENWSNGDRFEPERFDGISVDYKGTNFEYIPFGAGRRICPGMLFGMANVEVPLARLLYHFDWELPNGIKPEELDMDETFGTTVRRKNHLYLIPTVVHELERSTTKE
Experimental: as §1

[4] = system: OMT1; assay: OMT1 enzyme assays; format: biochemical, P. hexandrum; details: 10 μg/mL OMT1, 1 mM SAM, 30 or 50 μM substrate, 30° C., 2 h
Experimental: The above protocol was also followed for the expression and purification of OMT1 from BL21 (DE3) E. coli harboring pET24b:OMT1.
Assay lacking SAM served as negative control.
as §1

[5] = biological target: T4, CYP71CU1 (Sinopodophyllum hexandrum, UniProt A0A0N9HTU1); assay: CYP71CU1-microsome assays; details: 1 mg/mL microsomes, 1 mM NADPH, 30 or 50 μM substrate, 30° C., 2 h
T4 sequence (A0A0N9HTU1 1-493): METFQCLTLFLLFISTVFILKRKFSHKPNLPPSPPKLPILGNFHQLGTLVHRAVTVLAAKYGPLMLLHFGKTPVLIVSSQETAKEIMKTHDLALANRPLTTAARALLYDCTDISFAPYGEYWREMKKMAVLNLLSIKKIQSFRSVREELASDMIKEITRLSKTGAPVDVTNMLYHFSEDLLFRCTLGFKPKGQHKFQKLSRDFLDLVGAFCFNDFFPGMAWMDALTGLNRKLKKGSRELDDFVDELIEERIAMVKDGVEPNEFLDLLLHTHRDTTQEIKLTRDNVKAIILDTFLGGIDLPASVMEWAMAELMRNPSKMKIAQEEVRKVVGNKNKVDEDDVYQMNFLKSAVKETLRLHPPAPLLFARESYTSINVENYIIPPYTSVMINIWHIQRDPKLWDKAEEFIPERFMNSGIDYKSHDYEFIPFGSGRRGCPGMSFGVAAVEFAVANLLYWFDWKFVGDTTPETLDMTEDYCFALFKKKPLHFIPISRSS
Experimental: Yeast growth, induction and microsome preparation were performed according to Pompon et al. Microsomes enriched with P450 were isolated in 50 mM Tris-Cl, pH=7.4, 20% glycerol, 1 mM EDTA, flash-frozen as pellets in liquid nitrogen and kept at −80° C. for long term storage. Total protein content was estimated by measuring UV absorbance at 280 nm on a NanoDrop 1000 spectrophotometer.
CYP71CU1-microsome assays contained 1 mg/mL of CYP71CU1-microsomes, 1 mM NADPH, 30 or 50 μM of substrate and 100 mM NaCl in sodium phosphate buffer (50 mM, pH 7.4). Assays with microsomes from WAT11 harboring an empty vector or lacking NADPH served as negative controls. […] Enzyme assays with both CYP71CU1-microsomes and OMT1 contained 1 mg/mL of CYP71CU1-microsomes, 1 mM NADPH, 10 μg/mL of purified OMT1, 1 mM SAM, 30 or 50 μM of substrate and 100 mM NaCl in sodium phosphate buffer (50 mM, pH 7.4).
All substrates [(−)-matairesinol, (−)-arctigenin, (−)-pluviatolide, (−)-5′-desmethoxy-yatein, (−)-yatein, (−)-deoxypodophyllotoxin, and (−)-podophyllotoxin] were derived from a 100% DMSO stock; final concentration of DMSO in enzyme assays was kept constant at 5%. Total reaction volumes were 50 μL. Reactions were initiated by the addition of enzyme and incubated at 30° C.
After 2 h of incubation, reactions were quenched by the addition of 1 volume of acetonitrile with 0.1% TFA and clarified by centrifugation for 10 min at 17,000 g.

SMILES	acceptance as substrate by OMT3 [1]	activity of CYP71BE54-enriched microsomes on substrate [3]	activity of OMT1 on substrate [4]	activity of CYP71CU1 on substrate [5]	further results
COc1cc(C2OCC3C(c4ccc(O)c(OC)c4)OCC23)ccc1O (single isomer, unassigned; (+)) [(+)-pinoresinol]	did not turn over	–	–	–	–
COc1ccc(C[C@H]2C(=O)OC[C@@H]2Cc2ccc3c(c2)OCO3)cc1OC [(−)-5′-desmethoxy-yatein]	–	No activity	–	–	activity of 2-ODD on substrate, compared to (−)-yatein [2]: some activity
COc1cc(C[C@H]2C(=O)OC[C@@H]2Cc2ccc(OC)c(OC)c2)ccc1O [(−)-arctigenin]	much lower efficiency	–	not active	not active	–
COc1cc(C[C@H]2COC(=O)[C@@H]2Cc2ccc(O)c(OC)c2)ccc1O [(−)-matairesinol]	much lower efficiency	–	not active	not active	–
COc1cc(C[C@H]2C(=O)OC[C@@H]2Cc2ccc3c(c2)OCO3)ccc1O [(−)-pluviatolide]	–	–	not active	not active	kcat ([1]; (−)-pluviatolide methylation by OMT3 purified from E. coli, 1 mM SAM, 22° C., pH 7.4): 0.72 s⁻¹; Km ([1]; (−)-pluviatolide methylation by OMT3 purified from E. coli, 1 mM SAM, 22° C., pH 7.4, read-out: apparent Km): 1.4 µM; activity of 2-ODD on substrate, compared to (−)-yatein [2]: negligible activity
COc1cc([C@@H]2c3cc4c(cc3[C@H](O)[C@H]3COC(=O)[C@H]23)OCO4)cc(OC)c1OC [(−)-podophyllotoxin]	–	No activity	–	–	–
COc1cc(C[C@H]2C(=O)OC[C@@H]2Cc2ccc3c(c2)OCO3)cc(OC)c1OC [(−)-yatein]	–	No activity	–	–	–
